Patent US10576086B2, “Triazine derivatives as interferon-gamma inhibitors” (University of Greenwich, priority 2015, dated 2020)

Key:
[1] = system: IFN-γ production in human peripheral blood mononuclear cells (PBMCs); experiment: Experiment 1: IFN-γ production by PHA-stimulated human PBMCs, ELISA; type: cell-based; conditions: for IFN-γ Concentration: PHA 5 μg/ml; for IFN-γ Concentration, Mean: 24 h
Procedure: The ex vivo activity of various compounds towards suppression of IFN-γ production in human peripheral blood mononuclear cells (PBMCs) was studied.
[…] They were not taking any other prescribed medication that could interfere with the results.
The blood was transferred into 50 ml centrifuge tubes (Corning, USA) containing heparin sodium salt 37.5 mg heparin powder diluted in 300-500 μl phosphate buffered saline (PBS) for 50 ml blood), and centrifuged at 2000 rpm for 10 minutes, and the plasma portion was separated. The plasma was further centrifuged at 3000 rpm for 10 minutes, and the supernatant separated and kept for later use.
The blood cells from the initial centrifugation were diluted with an equal volume of RPMI-1640 (Sigma, UK), and layered (2:1) onto Lymphoprep (Axis-Shield, Norway) in 25 ml universal tubes (Bibby Sterilin, UK) for density gradient centrifugation at 2500 rpm for 30 minutes.
PBMCs (lymphocytes and monocytes) were then removed from the interface, diluted in an equal volume of RPMI-1640 and washed twice by centrifugation at 3000 rpm for 10 minutes.
For testing, the PBMCs were re-suspended in a known volume of culture medium containing RPMI-1640 supplemented with 2 mM L-glutamine, 100 U penicillin, and 100 μg streptomycin (Sigma, UK).
The cell count was determined by the use of a haemocytometer using 10 μl of the cell suspension. The number of cells was determined based on a count in 5 random 1 mm squares.
The cell solution was then diluted with the supplemented RPMI-1640 medium to ensure a cell count of 2×10^6 cells/ml.
The PBMC suspension was added to tissue culture tubes (Bibby Sterilin, UK) with 5% autologous plasma, 5 μg/mlphytohaemaglutinin (PHA) to stimulate T-lymphocyte IFN-γ production, and a solution containing various concentrations of the compound to be studied. A control containing no compound was also cultured for each subject.
In the case of lamotrigine, the isethionate salt was used, and diluted with RPMI-1640 to produce 100 μM, 30 μM, 10 μM and 3 μM solutions that were tested on PBMCs from the first three subjects. With PBMC's from the other two subjects, a 300 μM solution was also tested.
For sipatrigine, the mesylate salt was used, and diluted with RPMI-1640 to produce 30 μM, 10 μM, 3 μM and 1 μM solutions. It was tested on PBMCs from the first three subjects only.
(§1) The tubes were incubated at 37° C. for 24 hours under a 5% CO2 atmosphere. After incubation, the cells (>75% viable according to trypan blue test) were centrifuged at 3000 prm for 10 minutes, and the cell-free supernatants were collected and stored at −70° C. before analysis for IFN-γ.
Levels of IFN-γ produced by the PBMCs were determined by the DuoSet ELISA Development system for human IFN-γ (RD Systems, UK), with a sensitivity of 15.6-1000 pg/ml.
Capture antibody, detection antibody, standard and streptavidin-HRP (streptavidin conjugated to horseradish peroxidase) were provided. A 96-well microtitre plate (Corning CoStar, flat bottom, polystyrene, high binding microtitre plate, UK) was coated with 100 μl per well of capture antibody (mouse anti-human IFN-γ at 4.0 μg/ml), sealed and incubated overnight. Unbound capture antibody was washed from the wells three times, using a wash buffer (0.05% Tween 20 in PBS). Block buffer (1% bovine serum albumin (BSA) in PBS) was then added. After incubation for 1 hour, the wells were washed, and sample culture supernatants or standards were added. A 7-point standard curve (in the range 15.6-1000 pg/ml) was produced from […] recombinant human IFN-γ using 2-fold serial dilutions in reagent diluent (0.1% BSA, 0.05% Tween 20 in tris-buffered saline (20 mM Trizma base, 150 mM NaCl)). The sealed plates were left to incubate for 2 hours.
After further washing, the detection antibody (biotinylated goat anti-human IFN-γ at 175 ng/ml) was added, and the plates sealed and incubated for a further 2 hours. […]

PBMCs = experiment: Experiment 1: PBMC viability, trypan blue exclusion; type: cell-based, human; conditions: after 24 h incubation
Procedure: Cell viability was checked using trypan blue exclusion, using 0.04% trypan blue solution (0.4% trypan blue solution (Sigma, UK) diluted 10× with PBS). 10 μl trypan blue solution was mixed with 10 μl cell suspension, and after 5 minutes was mounted onto the haemocytometer. The total number of cells, and the total number of viable (colourless) cells were counted in three 1 mm squares. Viability was greater than 85% in all cases.
as §1

## Nc1nnc(-c2cccc(Cl)c2Cl)c(N)n1 [Lamotrigine, 3,5-diamino-6-(2,3-dichlorophenyl)-1,2,4-triazine]
[1]; 3 μM, Subject 1, 24 h
  IFN-γ Concentration: 1153.13 pg/mL
[1]; 3 μM, Subject 2, 24 h
  IFN-γ Concentration: 1238.68 pg/mL
[1]; 3 μM, Subject 3, 24 h
  IFN-γ Concentration: 1641.69 pg/mL
[1]; 3 μM, Subject 4, 24 h
  IFN-γ Concentration: 937.30 pg/mL
[1]; 3 μM, Subject 6, 24 h
  IFN-γ Concentration: 1305.54 pg/mL
[1]; 3 μM, mean of five subjects
  IFN-γ Concentration, Mean: 1255.27 pg/mL
[1]; 10 μM, Subject 1, 24 h
  IFN-γ Concentration: 923.32 pg/mL
[1]; 10 μM, Subject 2, 24 h
  IFN-γ Concentration: 1307.46 pg/mL
[1]; 10 μM, Subject 3, 24 h
  IFN-γ Concentration: 1180.21 pg/mL
[1]; 10 μM, Subject 4, 24 h
  IFN-γ Concentration: 895.04 pg/mL
[1]; 10 μM, Subject 6, 24 h
  IFN-γ Concentration: 1227.25 pg/mL
[1]; 10 μM, mean of five subjects
  IFN-γ Concentration, Mean: 1106.66 pg/mL
[1]; 30 μM, Subject 1, 24 h
  IFN-γ Concentration: 872.99 pg/mL
[1]; 30 μM, Subject 2, 24 h
  IFN-γ Concentration: 1089.69 pg/mL
[1]; 30 μM, Subject 3, 24 h
  IFN-γ Concentration: 897.48 pg/mL
[1]; 30 μM, Subject 4, 24 h
  IFN-γ Concentration: 853.66 pg/mL
[1]; 30 μM, Subject 6, 24 h
  IFN-γ Concentration: 1191.37 pg/mL
[1]; 30 μM, mean of five subjects
  IFN-γ Concentration, Mean: 981.04 pg/mL
[1]; 100 μM, Subject 1, 24 h
  IFN-γ Concentration: 834.21 pg/mL
[1]; 100 μM, Subject 2, 24 h
  IFN-γ Concentration: 886.41 pg/mL
[1]; 100 μM, Subject 3, 24 h
  IFN-γ Concentration: 392.96 pg/mL
[1]; 100 μM, Subject 4, 24 h
  IFN-γ Concentration: 775.28 pg/mL
[1]; 100 μM, Subject 6, 24 h
  IFN-γ Concentration: 1095.88 pg/mL
[1]; 100 μM, mean of five subjects
  IFN-γ Concentration, Mean: 796.95 pg/mL
[1]; 300 μM, Subject 4, 24 h
  IFN-γ Concentration: 495.48 pg/mL
[1]; 300 μM, Subject 6, 24 h
  IFN-γ Concentration: 798.32 pg/mL
[1]; 300 μM, mean of two subjects
  IFN-γ Concentration, Mean: 646.90 pg/mL
[1]; 300 μM, two subjects, no significance value calculated
  inhibition of IFN-γ production, trend: continuing trend towards further increased inhibition
[1]; 10, 30 and 100 μM, four subjects
  inhibition of IFN-γ production, significance recalculated without subject 3: statistically significant (P<0.05) inhibition of IFN-γ production
[1]; Experiment 1, human PBMCs
  inhibition of IFN-γ production (in words): inhibits the amount of IFN-γ produced by the PBMCs
[1]; Subject 3, 100 μM
  reduction in IFN-γ production: 75%
[1]; concentrations of 10 to 100 μM, paired Student's t-test
  reduction of IFN-γ produced by PBMCs, significance vs control: statistically significant (P<0.05) reductions
PBMCs
  effect on PBMC viability: did not appear to alter PBMC viability
